From ChEMBL document CHEMBL5696442, “Discovery of type II inhibitors of TGFβ-activated kinase 1 (TAK1) and mitogen-activated protein kinase kinase kinase kinase 2 (MAP4K2)” (J Med Chem, 2015) come the findings set out here.

The subject of experiment [1] is Epidermal growth factor receptor (Homo sapiens), P00533 [T790M]. Put plainly: Inhibition of EGFR T790M mutant (unknown origin) at 1 uM by Ambit Kinomescan binding assay relative to control.
Experiment [2] deals with Ribosomal protein S6 kinase alpha-1 (Homo sapiens) (UniProt Q15418). Put plainly: Inhibition of RSK1 domain2 Lys2 labeling site in human A-375 cells at 0.05 uM by KiNativ Profiling analysis relative to control. The class given is cell-based.
Experiment [3] deals with Serine/threonine-protein kinase PAK 4 (Homo sapiens) (UniProt O96013). Put plainly: Inhibition of PAK4 (unknown origin) at 1 uM by Ambit Kinomescan binding assay relative to control; values are per cent of control.
For experiment [4], the target named is 5'-AMP-activated protein kinase catalytic subunit alpha-1 (Homo sapiens) (UniProt Q13131). Put plainly: Inhibition of AMPKa1 Lys2 labeling site in human A-375 cells at 5 uM by KiNativ Profiling analysis relative to control. Format: cell-based.
Experiment [5] concerns the target MAP/microtubule affinity-regulating kinase 3 (Homo sapiens) (UniProt P27448). Put plainly: Inhibition of MARK3 Lys2 labeling site in human A-375 cells at 0.5 uM by KiNativ Profiling analysis relative to control. Format: cell-based.
Experiment [6] deals with Mast/stem cell growth factor receptor Kit (Homo sapiens), P10721 [D816V]. Put plainly: Inhibition of KIT D816V mutant (unknown origin) at 1 uM by Ambit Kinomescan binding assay relative to control; values are per cent of control.
For experiment [7], the target named is Proto-oncogene tyrosine-protein kinase ROS (Homo sapiens) (UniProt P08922). Put plainly: Inhibition of ROS1 (unknown origin) at 10 uM by Ambit Kinomescan binding assay.
Experiment [8] has as its target Serine/threonine-protein kinase 10 (Homo sapiens) (UniProt O94804). Put plainly: Inhibition of LOK K2 labeling site harbouring DLKAGNVLMTLEGDIR in human Huh-7 cells at 10 uM by KiNativ Profiling analysis relative to control. Format: cell-based.
Experiment [9] addresses Serine/threonine-protein kinase 25 (Homo sapiens) (UniProt O00506). Put plainly: Inhibition of YSK1 ATP labeling site in human Huh-7 cells at 1 uM by KiNativ Profiling analysis relative to control. The class given is cell-based.
Experiment [10] is described as follows: Inhibition of NEK6/7 K2 labeling site harbouring DIKPANVFITATGVVK in human Huh-7 cells at 10 uM by KiNativ Profiling analysis relative to control. The settings on record: condition cancer.
Experiment [11] concerns the target T1, Inhibitor of nuclear factor kappa-B kinase subunit epsilon (Homo sapiens) (UniProt Q14164).
T1 sequence (whole entry): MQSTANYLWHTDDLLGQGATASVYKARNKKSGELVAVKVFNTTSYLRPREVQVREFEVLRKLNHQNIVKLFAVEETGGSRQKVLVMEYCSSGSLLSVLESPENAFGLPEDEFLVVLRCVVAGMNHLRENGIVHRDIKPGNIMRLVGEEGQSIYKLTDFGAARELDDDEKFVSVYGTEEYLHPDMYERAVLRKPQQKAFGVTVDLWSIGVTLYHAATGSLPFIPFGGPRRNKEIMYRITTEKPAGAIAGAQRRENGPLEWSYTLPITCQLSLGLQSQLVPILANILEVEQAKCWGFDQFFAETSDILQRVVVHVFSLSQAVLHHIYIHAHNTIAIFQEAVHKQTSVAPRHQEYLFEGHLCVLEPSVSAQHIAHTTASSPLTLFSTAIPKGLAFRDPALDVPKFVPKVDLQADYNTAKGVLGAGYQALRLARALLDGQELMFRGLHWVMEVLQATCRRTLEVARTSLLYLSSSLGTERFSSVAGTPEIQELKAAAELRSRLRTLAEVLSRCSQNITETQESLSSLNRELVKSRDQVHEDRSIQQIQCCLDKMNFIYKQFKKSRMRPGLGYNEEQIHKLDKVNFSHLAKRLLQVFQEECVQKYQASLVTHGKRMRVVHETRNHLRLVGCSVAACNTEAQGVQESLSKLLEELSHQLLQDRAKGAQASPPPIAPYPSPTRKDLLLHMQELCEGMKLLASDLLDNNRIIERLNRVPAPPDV
Put plainly: Inhibition of IKKe Lys1 labeling site in human A-375 cells at 5 uM by KiNativ Profiling analysis relative to control. The class given is cell-based.

Experiment [12] deals with Protein kinase C theta type (Homo sapiens) (UniProt Q04759). Put plainly: Inhibition of PRKCQ (unknown origin) at 10 uM by Ambit Kinomescan binding assay.
The target in experiment [13] is Serine/threonine-protein kinase DCLK2 (Homo sapiens) (UniProt Q8N568). Put plainly: Inhibition of DCAMKL2 (unknown origin) at 10 uM by Ambit Kinomescan binding assay.
For experiment [14], the target named is DNA-dependent protein kinase catalytic subunit (Homo sapiens) (UniProt P78527). Put plainly: Inhibition of PRKDC ATP labeling site harbouring KGGSWIQEINVAEK in human Huh-7 cells at 10 uM by KiNativ Profiling analysis relative to control. Format: cell-based.
In experiment [15] the target is T2, Dual specificity mitogen-activated protein kinase kinase 6 (Homo sapiens) (UniProt P52564).
T2 sequence (whole entry): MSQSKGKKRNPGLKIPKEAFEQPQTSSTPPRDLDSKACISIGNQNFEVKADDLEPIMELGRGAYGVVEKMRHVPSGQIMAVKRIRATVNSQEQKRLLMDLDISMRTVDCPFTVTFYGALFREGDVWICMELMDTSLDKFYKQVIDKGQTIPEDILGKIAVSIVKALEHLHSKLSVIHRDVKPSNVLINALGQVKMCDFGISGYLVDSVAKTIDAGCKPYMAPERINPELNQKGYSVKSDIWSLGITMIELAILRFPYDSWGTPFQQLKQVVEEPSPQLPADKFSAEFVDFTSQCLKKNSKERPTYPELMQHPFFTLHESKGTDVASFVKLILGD
Put plainly: Inhibition of MAP2K6 K1 labeling site in human Huh-7 cells at 1 uM by KiNativ Profiling analysis relative to control. The class given is cell-based.

In experiment [16] the target is Serine/threonine-protein kinase Nek6 (Homo sapiens) (UniProt Q9HC98). Put plainly: Inhibition of NEK6 Lys2 labeling site harbouring VMHRDIKPANVFITATGVVK in human Huh-7 cell lysate at 1 uM by KiNativ Profiling analysis relative to control. Format: subcellular.
For experiment [17], the target named is 5'-AMP-activated protein kinase catalytic subunit alpha-1 (Homo sapiens) (UniProt Q13131). Put plainly: Inhibition of AMPKa1 ATP labeling site in human Huh-7 cell lysate at 1 uM by KiNativ Profiling analysis relative to control. The class given is subcellular.
Experiment [18] has as its target Phosphatidylinositol 4,5-bisphosphate 3-kinase catalytic subunit beta isoform (Homo sapiens) (UniProt P42338). Put plainly: Inhibition of PIK3CB ATP labeling site harbouring VFGEDSVGVIFKNGDDLR in human Huh-7 cell lysate at 1 uM by KiNativ Profiling analysis relative to control. The class given is subcellular.
The target in experiment [19] is DNA-PK/Ku70/Ku85 (Homo sapiens) (UniProt P78527+P12956+P13010). Put plainly: Inhibition of DNAPK ATP labeling site harbouring KGGSWIQEINVAEK in human Huh-7 cell lysate at 1 uM by KiNativ Profiling analysis relative to control. Format: subcellular.

The source made the active and inactive calls. The calls are words filed in the database; no cut-off is given here.

Chain of 5'-AMP-activated protein kinase catalytic subunit alpha-1 (Homo sapiens) (Q13131 whole entry, looked up, canonical isoform): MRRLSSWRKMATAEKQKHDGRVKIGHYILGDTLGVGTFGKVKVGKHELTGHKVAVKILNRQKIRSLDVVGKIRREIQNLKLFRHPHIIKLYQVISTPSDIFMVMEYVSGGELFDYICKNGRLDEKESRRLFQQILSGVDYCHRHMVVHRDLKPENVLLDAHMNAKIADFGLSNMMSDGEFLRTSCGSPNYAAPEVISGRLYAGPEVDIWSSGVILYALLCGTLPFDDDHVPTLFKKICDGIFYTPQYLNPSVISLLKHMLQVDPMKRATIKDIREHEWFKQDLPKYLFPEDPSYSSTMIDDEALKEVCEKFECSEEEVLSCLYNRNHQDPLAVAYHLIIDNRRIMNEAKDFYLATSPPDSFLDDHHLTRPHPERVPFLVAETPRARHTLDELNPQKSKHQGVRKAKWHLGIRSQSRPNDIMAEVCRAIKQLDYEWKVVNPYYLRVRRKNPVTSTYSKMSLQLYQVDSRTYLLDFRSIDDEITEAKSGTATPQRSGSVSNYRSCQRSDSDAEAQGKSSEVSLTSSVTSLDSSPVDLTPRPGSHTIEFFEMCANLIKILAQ
Chain of Phosphatidylinositol 4,5-bisphosphate 3-kinase catalytic subunit beta isoform (Homo sapiens) (P42338 whole entry, looked up, canonical isoform): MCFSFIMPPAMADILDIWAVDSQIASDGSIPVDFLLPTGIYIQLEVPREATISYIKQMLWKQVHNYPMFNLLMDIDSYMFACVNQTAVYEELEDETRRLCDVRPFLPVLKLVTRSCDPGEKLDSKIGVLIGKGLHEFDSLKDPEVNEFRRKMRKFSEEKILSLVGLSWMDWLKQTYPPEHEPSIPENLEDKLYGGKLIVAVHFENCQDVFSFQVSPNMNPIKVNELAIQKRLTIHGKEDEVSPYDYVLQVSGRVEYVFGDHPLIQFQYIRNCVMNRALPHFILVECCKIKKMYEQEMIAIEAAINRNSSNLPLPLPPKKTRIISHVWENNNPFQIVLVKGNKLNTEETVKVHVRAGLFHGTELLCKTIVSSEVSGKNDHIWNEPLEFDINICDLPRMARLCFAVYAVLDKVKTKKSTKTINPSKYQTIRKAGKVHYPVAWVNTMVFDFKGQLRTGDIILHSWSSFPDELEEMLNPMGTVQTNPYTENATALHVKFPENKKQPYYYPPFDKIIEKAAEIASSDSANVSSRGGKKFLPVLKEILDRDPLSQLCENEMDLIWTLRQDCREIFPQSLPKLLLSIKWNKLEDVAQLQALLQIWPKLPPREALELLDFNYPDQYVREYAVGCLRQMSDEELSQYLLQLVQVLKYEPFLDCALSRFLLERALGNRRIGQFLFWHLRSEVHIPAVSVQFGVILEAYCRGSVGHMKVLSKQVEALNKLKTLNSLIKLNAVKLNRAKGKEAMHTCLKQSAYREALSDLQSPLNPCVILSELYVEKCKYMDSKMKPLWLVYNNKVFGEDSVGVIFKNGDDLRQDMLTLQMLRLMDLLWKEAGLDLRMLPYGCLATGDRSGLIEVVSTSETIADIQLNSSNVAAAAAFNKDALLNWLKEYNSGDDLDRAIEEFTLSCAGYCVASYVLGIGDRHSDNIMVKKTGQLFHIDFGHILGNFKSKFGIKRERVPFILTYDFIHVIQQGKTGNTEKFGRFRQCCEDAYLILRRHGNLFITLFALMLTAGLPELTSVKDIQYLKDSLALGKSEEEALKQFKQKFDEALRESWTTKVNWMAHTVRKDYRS
Chain of Serine/threonine-protein kinase 10 (Homo sapiens) (O94804 whole entry, looked up): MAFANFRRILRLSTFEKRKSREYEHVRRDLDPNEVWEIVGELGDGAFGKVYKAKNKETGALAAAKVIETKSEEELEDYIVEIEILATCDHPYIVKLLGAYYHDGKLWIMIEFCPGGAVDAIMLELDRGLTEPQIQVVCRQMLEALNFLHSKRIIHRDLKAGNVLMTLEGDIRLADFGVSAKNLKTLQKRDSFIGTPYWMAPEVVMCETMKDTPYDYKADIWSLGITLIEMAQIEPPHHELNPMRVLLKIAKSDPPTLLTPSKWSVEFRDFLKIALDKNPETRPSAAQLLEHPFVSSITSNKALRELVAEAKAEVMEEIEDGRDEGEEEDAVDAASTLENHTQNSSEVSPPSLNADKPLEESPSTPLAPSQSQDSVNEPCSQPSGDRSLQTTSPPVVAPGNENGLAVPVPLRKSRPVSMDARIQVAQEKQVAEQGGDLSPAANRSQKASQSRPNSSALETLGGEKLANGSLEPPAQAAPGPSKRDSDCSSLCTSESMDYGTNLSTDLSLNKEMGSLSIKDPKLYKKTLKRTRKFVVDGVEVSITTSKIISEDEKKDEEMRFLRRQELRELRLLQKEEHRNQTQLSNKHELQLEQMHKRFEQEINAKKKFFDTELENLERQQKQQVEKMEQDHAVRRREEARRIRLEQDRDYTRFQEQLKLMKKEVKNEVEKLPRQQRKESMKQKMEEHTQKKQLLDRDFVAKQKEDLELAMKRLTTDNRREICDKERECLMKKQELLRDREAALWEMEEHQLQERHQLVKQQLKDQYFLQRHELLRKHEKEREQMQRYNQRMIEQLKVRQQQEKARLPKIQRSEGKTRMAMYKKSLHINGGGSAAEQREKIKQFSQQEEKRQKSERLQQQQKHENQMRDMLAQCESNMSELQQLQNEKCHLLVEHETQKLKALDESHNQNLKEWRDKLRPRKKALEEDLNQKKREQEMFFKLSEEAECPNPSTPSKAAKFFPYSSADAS
Chain of Serine/threonine-protein kinase 25 (Homo sapiens) (O00506 whole entry, looked up): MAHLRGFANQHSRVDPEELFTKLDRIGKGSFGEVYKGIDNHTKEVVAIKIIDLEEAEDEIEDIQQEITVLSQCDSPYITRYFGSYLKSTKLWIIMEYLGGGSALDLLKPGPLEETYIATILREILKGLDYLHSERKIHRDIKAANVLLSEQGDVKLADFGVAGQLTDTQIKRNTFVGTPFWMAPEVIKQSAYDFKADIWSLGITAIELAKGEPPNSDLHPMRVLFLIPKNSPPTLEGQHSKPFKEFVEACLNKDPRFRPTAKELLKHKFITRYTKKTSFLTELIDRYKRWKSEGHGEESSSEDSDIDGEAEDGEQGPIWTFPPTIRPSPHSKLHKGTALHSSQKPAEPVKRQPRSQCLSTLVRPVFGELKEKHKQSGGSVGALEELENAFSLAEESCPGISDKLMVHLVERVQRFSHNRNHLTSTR
Chain of MAP/microtubule affinity-regulating kinase 3 (Homo sapiens) (P27448 whole entry, looked up): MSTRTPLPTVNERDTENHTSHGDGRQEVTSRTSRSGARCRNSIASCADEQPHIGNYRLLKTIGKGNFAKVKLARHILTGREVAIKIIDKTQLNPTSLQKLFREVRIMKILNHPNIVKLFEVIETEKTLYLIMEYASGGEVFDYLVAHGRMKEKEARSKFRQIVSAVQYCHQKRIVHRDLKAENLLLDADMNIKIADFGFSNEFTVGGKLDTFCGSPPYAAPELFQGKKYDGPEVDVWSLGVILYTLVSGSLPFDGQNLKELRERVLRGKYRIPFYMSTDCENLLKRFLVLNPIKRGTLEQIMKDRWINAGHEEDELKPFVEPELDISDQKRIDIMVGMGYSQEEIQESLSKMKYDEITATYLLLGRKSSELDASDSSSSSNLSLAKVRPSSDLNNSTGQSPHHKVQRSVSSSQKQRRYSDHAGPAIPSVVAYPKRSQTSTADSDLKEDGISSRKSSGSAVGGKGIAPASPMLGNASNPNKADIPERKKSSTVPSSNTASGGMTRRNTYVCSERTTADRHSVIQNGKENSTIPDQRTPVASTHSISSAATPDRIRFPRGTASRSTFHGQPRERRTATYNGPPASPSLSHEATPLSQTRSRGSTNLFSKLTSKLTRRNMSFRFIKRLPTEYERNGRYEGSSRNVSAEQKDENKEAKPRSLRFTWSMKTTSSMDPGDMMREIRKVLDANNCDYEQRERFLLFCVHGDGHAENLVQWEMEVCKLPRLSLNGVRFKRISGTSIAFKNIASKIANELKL
Chain of Serine/threonine-protein kinase PAK 4 (Homo sapiens) (O96013 whole entry, looked up): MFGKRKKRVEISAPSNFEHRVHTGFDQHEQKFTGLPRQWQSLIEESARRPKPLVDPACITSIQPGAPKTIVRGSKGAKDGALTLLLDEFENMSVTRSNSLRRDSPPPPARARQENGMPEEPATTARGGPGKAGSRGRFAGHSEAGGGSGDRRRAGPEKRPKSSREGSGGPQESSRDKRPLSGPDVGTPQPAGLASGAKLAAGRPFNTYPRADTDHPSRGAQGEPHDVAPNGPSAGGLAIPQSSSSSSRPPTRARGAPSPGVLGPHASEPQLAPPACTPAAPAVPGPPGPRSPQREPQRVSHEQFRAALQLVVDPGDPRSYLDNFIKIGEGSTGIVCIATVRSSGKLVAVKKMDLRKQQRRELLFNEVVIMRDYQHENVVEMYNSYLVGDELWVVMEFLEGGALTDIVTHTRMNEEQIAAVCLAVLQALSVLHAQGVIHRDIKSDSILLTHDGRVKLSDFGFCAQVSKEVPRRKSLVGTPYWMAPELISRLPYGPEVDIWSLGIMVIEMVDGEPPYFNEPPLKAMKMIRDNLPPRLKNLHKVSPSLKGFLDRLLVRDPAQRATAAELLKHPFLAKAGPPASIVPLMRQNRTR
Chain of Protein kinase C theta type (Homo sapiens) (Q04759 whole entry, looked up): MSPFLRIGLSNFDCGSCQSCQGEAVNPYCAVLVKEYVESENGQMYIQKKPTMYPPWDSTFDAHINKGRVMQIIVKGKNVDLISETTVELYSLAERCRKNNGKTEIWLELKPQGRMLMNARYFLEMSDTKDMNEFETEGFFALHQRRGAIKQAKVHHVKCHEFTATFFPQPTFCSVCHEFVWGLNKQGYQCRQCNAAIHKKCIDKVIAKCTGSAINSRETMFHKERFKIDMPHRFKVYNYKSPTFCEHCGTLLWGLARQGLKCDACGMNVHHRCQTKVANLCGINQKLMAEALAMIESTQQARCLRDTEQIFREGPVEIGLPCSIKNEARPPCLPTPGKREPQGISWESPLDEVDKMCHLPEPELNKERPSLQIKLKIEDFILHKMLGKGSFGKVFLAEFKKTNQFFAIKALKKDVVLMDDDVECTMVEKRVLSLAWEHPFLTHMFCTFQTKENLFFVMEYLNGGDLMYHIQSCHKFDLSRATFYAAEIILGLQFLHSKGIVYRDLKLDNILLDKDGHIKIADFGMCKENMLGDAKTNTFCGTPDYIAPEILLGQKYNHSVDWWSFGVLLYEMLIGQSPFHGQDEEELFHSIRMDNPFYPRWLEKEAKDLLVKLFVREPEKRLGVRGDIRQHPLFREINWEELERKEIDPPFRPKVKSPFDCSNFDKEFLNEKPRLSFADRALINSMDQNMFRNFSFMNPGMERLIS

As for `CCN1CCN(Cc2ccc(NC(=O)c3ccc(C)c(/C=C/c4cnc5[nH]ccc5c4OC)c3)cc2C(F)(F)F)CC1`, the inhibition in [1] worked out at 68%; in experiment [2] it was 4%; in experiment [4], 18.5%; in [5] it was 9.1%. Besides, the residual activity in [3] is 100%; in [6], 8.8%.
For `CCN1CCN(Cc2ccc(NC(=O)c3ccc(C)c(Oc4ccnc5[nH]ccc45)c3)cc2C(F)(F)F)CC1`, the inhibition entry in [7], in experiment [12] and in experiment [13] was “inactive” throughout. The inhibition in experiment [8] was determined as 13.5%; in experiment [9] it was 18%; in experiment [11], 0.8%; in [14], 0.2%; in experiment [15], 16.3%. For the same molecule, the inhibition at 10 µM in experiment [10] was 2.8%.
On to `CNc1cc(Oc2cc(C(=O)Nc3cc(N4CCN(C)CC4)cc(C(F)(F)F)c3)ccc2C)ncn1`, for which the inhibition was 19.4% in experiment [16], 11.2% in experiment [17], -1.3% in experiment [18] and -5.7% in [19].

For orientation: inhibition means the relative decrease from the control value, in per cent. One may read the residual activity as what remains of the control signal, in per cent.
